The values that follow come from patent US9957274B2, “Indane inhibitors of EED and methods of their use” (AbbVie Inc., priority 2016, dated 2018).

Molecules are shown by their SMILES. Read-outs that look alike come from different tables or passages of the source.

Experiment [1] concerns the target EED (Homo sapiens, UniProt O75530). The experiment can be described thus: EED TR-FRET Binding Assay (modified LanthaScreen competition assay). In a few lines: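 Competition binding in a modified LanthaScreen format, in 20 mM Tris-HCl pH 7.5, 200 mM NaCl, 0.01% Tween-20, 10 uM DTT and 0.05% BSA. Reactions ran 1 hour at 25° C before TR-FRET detection.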
On the technique in general: In TR-FRET formats the signal depends on donor and acceptor labels being close together.

The subject of experiment [2] is H3K27me3 in OCILY19 cells. As to the kind of experiment: H3K27me3 AlphaLISA assay in OCILY19 cells. The experiment is classed as cell-based. The note with it: Homo sapiens, OCI-LY19, 144 h, 6 days with compound, read-out: OCILY-19 IC50. As for the experimental part:
(§1) 5,000 cells were plated into each well of 96-well Corning CellBing cell culture plates and incubated overnight at 37° C. in a humidified CO2 incubator. […] The cell culture plates were then incubated for 6 more days. H3K27me3 AlphaLISA assay was performed on the cell culture samples by using AlphaLISAR® H3K27me3 Cellular Detection Kit (PerkinElmer) and 96-well white half-area plates (PerkinElmer).

The test system of experiment [3] is H3K27me3 in G401 cells. The experiment can be described thus: H3K27me3 AlphaLISA assay in G401 cells. The note with it: Homo sapiens, G-401, 144 h, 6 days with compound. The format is cell-based. As to the method: as §1, with “G401 cells (ATCC catalog # CRL-1441) were maintained in McCoy's 5a medium (ATCC) supplemented with 10% heat-inactivated FBS (HyClone) at 37° C. in a humidified CO2 incubator. OCILY19 cells (DSMZ catalog #ACC 528) were maintained in IMDM (Invitrogen) supplemented with 10% human serum (Sigma) at 37° C. in a humidified CO2 incubator. 5,000” for “5,000”
For orientation: In Alpha technology, singlet oxygen from a donor bead excites a nearby acceptor bead.

Experiment [4] relates to Pfeiffer cells. As to the kind of experiment: CTG cell viability assay (CellTiter-Glo). The format is cell-based. The note with it: Homo sapiens, 240 h. As for the experimental part: 1,000 cells were plated into each well of 96-well Corning CellBing cell culture plates and incubated overnight at 37° C. in a humidified CO2 incubator. […] The cell culture plates were then incubated for 10 more days. CTG cell viability assay was performed on the cell culture samples by using CellTiter-Glo® Luminescent Cell Viability Assay Kit (Promega).

The mark [5] stands for this setting: Pfeiffer cells, 10 days with compound, CellTiter-Glo, read-out: Cell Proliferation IC50.
Where [6] appears, read: Pfeiffer, read-out: Cell Proliferation IC50 (uM).

Chain of EED (O75530 whole entry): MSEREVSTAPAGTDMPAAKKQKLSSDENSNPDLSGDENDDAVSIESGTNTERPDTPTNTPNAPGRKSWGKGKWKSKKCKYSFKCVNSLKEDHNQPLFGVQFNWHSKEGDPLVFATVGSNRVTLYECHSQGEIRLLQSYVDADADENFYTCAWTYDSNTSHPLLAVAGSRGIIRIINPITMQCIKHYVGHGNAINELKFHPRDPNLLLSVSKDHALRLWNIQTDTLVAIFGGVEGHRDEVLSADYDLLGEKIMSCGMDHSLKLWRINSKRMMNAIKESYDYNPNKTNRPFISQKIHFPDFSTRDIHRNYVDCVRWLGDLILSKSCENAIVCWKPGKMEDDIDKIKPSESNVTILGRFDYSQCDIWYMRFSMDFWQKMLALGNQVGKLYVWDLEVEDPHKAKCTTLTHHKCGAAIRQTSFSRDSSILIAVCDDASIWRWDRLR

As to `COc1ccc([C@@H]2CN(C3CCc4cccc(F)c43)C[C@H]2N(C)C)cc1OC` (mixture of isomers) [Example 23, rac-(3S,4R)-4-(3,4-dimethoxyphenyl)-1-(7-fluoro-2,3-dihydro-1H-inden-1-yl)-N,N-dimethylpyrrolidin-3-amine], the IC50 was 2.72 nM in experiment [1], 393 nM in experiment [2], 198 nM in experiment [3] and 0.921 µM in experiment [4] (setting [5]).

On to `CN(C)[C@@H]1CN([C@@H]2CCc3cccc(F)c32)C[C@H]1c1ccc(C#N)cc1` (racemic) [Example 19, rac-4-{(3R,4S)-4-(dimethylamino)-1-[(1R)-7-fluoro-2,3-dihydro-1H-inden-1-yl]pyrrolidin-3-yl}benzonitrile], for which the IC50 amounted to 12.5 nM in experiment [1], 597 nM in experiment [2], 725 nM in experiment [3] and 0.654 µM in experiment [4] (setting [5]).

With `CN(C)[C@H]1CN(C2CCc3cccc(F)c32)C[C@@H]1c1cn(C)c2cc(C(=O)N3CC[C@@H](O)C3)ccc12` (mixture of isomers) [Example 112, rac-{3-[(3S,4R)-4-(dimethylamino)-1-(7-fluoro-2,3-dihydro-1H-inden-1-yl)pyrrolidin-3-yl]-1-methyl-1H-indol-6-yl}[(3R)-3-hydroxypyrrolidin-1-yl]methanone], the IC50 in experiment [1] amounted to 1.2 nM; in experiment [2], 446 nM; in experiment [3], 70.2 nM; in experiment [4] (setting [5]) it was 0.133 µM.

For the molecule `COC(=O)c1ccc([C@@H]2CN(C3CCc4cccc(F)c43)C[C@H]2N(C)C)cc1` (mixture of isomers) [Example 22, rac-methyl 4-[(3R,4S)-4-(dimethylamino)-1-(7-fluoro-2,3-dihydro-1H-inden-1-yl)pyrrolidin-3-yl]benzoate], the IC50 in experiment [1] worked out at 2.85 nM; in experiment [2], 944 nM; in experiment [3], 449 nM; in experiment [4] (setting [5]), 0.422 µM.

Consider `CN(C)[C@H]1CN(C2CCc3cccc(F)c32)C[C@@H]1c1nn(C)c2ccccc12` (mixture of isomers) [Example 156, rac-(3R,4S)-1-(7-fluoro-2,3-dihydro-1H-inden-1-yl)-N,N-dimethyl-4-(1-methyl-1H-indazol-3-yl)pyrrolidin-3-amine], for which the IC50 in experiment [1] was determined as 1.41 nM; in experiment [2], 293 nM; in experiment [3], 212 nM; in experiment [4] (setting [5]) it was 0.375 µM.

`CN(C)[C@@H]1CN(C2CCc3cccc(F)c32)C[C@H]1c1ccc2c(c1)OCO2` (mixture of isomers) [Example 65, rac-(3S,4R)-4-(2H-1,3-benzodioxol-5-yl)-1-(7-fluoro-2,3-dihydro-1H-inden-1-yl)-N,N-dimethylpyrrolidin-3-amine]: the IC50 came to 1.75 nM in experiment [1], 306 nM in experiment [2], 576 nM in experiment [3] and 0.948 µM in experiment [4] (setting [5]).

For the molecule `CN(C)[C@H]1CN(C2CCc3cccc(F)c32)C[C@@H]1c1cn(C)c2ncccc12` (mixture of isomers) [Example 164, rac-(3R,4S)-1-(7-fluoro-2,3-dihydro-1H-inden-1-yl)-N,N-dimethyl-4-(1-methyl-1H-pyrrolo[2,3-b]pyridin-3-yl)pyrrolidin-3-amine], the IC50 in experiment [1] came out at 0.494 nM; in experiment [2] it was 461 nM; in experiment [3] it was 291 nM; in experiment [4] (setting [5]), 0.148 µM.

Regarding `CN(C)[C@H]1CN(C2CCc3cccc(F)c32)C[C@@H]1C1CCN(c2ccccn2)CC1` (mixture of isomers) [Example 152, rac-(3R,4S)-1-(7-fluoro-2,3-dihydro-1H-inden-1-yl)-N,N-dimethyl-4-[1-(pyridin-2-yl)piperidin-4-yl]pyrrolidin-3-amine], the IC50 came to 2.04 nM in experiment [1], 1790 nM in experiment [2], 476 nM in experiment [3] and 0.804 µM in experiment [4] (setting [5]).

Regarding `CN(C)[C@H]1CN(C2CCc3cccc(F)c32)C[C@@H]1c1cn(C)c2c(C(=O)N3CC(O)C3)cccc12` (stereo partly drawn) [Example 105, {3-[(3S,4R)-4-(dimethylamino)-1-(7-fluoro-2,3-dihydro-1H-inden-1-yl)pyrrolidin-3-yl]-1-methyl-1H-indol-7-yl}(3-hydroxyazetidin-1-yl)methanone], the IC50 in experiment [1] was 0.347 nM; in experiment [2], 27.1 nM; in experiment [3] it was 56.4 nM; in experiment [4] (setting [5]), 0.039 µM.

For `CN(C)[C@H]1CN(C2CCc3cccc(F)c32)C[C@@H]1c1cn(C)c2c(C(=O)N3CC(F)C3)cccc12` (stereo partly drawn) [Example 102, {3-[(3S,4R)-4-(dimethylamino)-1-(7-fluoro-2,3-dihydro-1H-inden-1-yl)pyrrolidin-3-yl]-1-methyl-1H-indol-7-yl}(3-fluoroazetidin-1-yl)methanone], the IC50 in experiment [1] was 0.335 nM; in experiment [2], 101 nM; in experiment [3], 40.7 nM; in experiment [4] (setting [5]), 0.0736 µM.

As for `CN(C)[C@H]1CN(C2CCc3cccc(F)c32)C[C@@H]1c1ccc(N2CCN(S(C)(=O)=O)CC2)cc1` (mixture of isomers) [Example 2, rac-(3R,4S)-1-(7-fluoro-2,3-dihydro-1H-inden-1-yl)-4-{4-[4-(methanesulfonyl)piperazin-1-yl]phenyl}-N,N-dimethylpyrrolidin-3-amine], the results for the IC50 in experiment [2], in experiment [3] and in experiment [4] (setting [6]) were 140 nM, 99.2 nM and 0.126 µM, respectively.

`CN(C)[C@H]1CN(C2CCc3cccc(F)c32)C[C@@H]1c1cn(C)c2c(C(=O)N3CCN(S(=O)(=O)N4CC(C#N)C4)CC3)cccc12` (stereo partly drawn) [Example 133, 1-(4-{3-[(3S,4R)-4-(dimethylamino)-1-(7-fluoro-2,3-dihydro-1H-inden-1-yl)pyrrolidin-3-yl]-1-methyl-1H-indole-7-carbonyl}piperazine-1-sulfonyl)azetidine-3-carbonitrile]: the IC50 in experiment [1] came out at 1.45 nM; in experiment [2] it was 206 nM; in experiment [3], 61.5 nM; in experiment [4] (setting [5]) it was 0.133 µM.

Take `CN(C)[C@@H]1CN(C2CCc3cccc(F)c32)C[C@H]1c1ccc(Cl)cc1` (mixture of isomers) [Example 7, rac-(3S,4R)-4-(4-chlorophenyl)-1-(7-fluoro-2,3-dihydro-1H-inden-1-yl)-N,N-dimethylpyrrolidin-3-amine]: the IC50 came out at 6.08 nM in experiment [1], 3120 nM in experiment [2], 3190 nM in experiment [3] and 2.34 µM in experiment [4] (setting [5]).

Regarding `CN(C)[C@H]1CN(C2CCc3cccc(F)c32)C[C@@H]1C1CCN(c2ncc(C(N)=O)s2)CC1` (mixture of isomers) [Example 162, rac-2-{4-[(3S,4R)-4-(dimethylamino)-1-(7-fluoro-2,3-dihydro-1H-inden-1-yl)pyrrolidin-3-yl]piperidin-1-yl}-1,3-thiazole-5-carboxamide], the IC50 came to 0.646 nM in experiment [1], 492 nM in experiment [2], 291 nM in experiment [3] and 0.216 µM in experiment [4] (setting [5]).

As to `CC(=O)N1CCN(c2ccc([C@H]3CN(C4CCc5cccc(F)c54)C[C@@H]3N(C)C)cc2)CC1` (stereo partly drawn) [Example 43, 1-(4-{4-[(3S,4R)-4-(dimethylamino)-1-(7-fluoro-2,3-dihydro-1H-inden-1-yl)pyrrolidin-3-yl]phenyl}piperazin-1-yl)ethan-1-one], the IC50 in experiment [1] amounted to 0.297 nM; in experiment [2], 50.4 nM; in experiment [3], 32.6 nM.

As for `CN(C)[C@H]1CN(C2CCc3cccc(F)c32)C[C@@H]1c1cn(C)c2c(C(=O)N3CCN(S(C)(=O)=O)CC3)cccc12` (mixture of isomers) [Example 126, rac-{3-[(3S,4R)-4-(dimethylamino)-1-(7-fluoro-2,3-dihydro-1H-inden-1-yl)pyrrolidin-3-yl]-1-methyl-1H-indol-7-yl}[4-(methanesulfonyl)piperazin-1-yl]methanone], the values for the IC50 in experiment [1], in experiment [2] and in experiment [4] (setting [5]) were 2.14 nM, 220 nM and 0.329 µM, respectively.

For the molecule `CN(C)[C@H]1CN(C2CCc3cccc(F)c32)C[C@@H]1c1ccc(N2CCN(S(C)(=O)=O)CC2)cc1` (mixture of isomers) [Example 1, (3R,4S)-1-(7-fluoro-2,3-dihydro-1H-inden-1-yl)-4-{4-[4-(methanesulfonyl)piperazin-1-yl]phenyl}-N,N-dimethylpyrrolidin-3-amine], the results for the IC50 in experiment [2], in experiment [3] and in experiment [4] (setting [6]) were 62.1 nM, 55.5 nM and 0.0725 µM, respectively.

In the case of `CC(=O)N1CCN(C(=O)c2cccc3c([C@H]4CN(C5CCc6cccc(F)c65)C[C@@H]4N(C)C)cn(C)c23)CC1` (mixture of isomers) [Example 128, rac-1-(4-{3-[(3S,4R)-4-(dimethylamino)-1-(7-fluoro-2,3-dihydro-1H-inden-1-yl)pyrrolidin-3-yl]-1-methyl-1H-indole-7-carbonyl}piperazin-1-yl)ethan-1-one], the IC50 came out at 1.03 nM in experiment [1], 241 nM in experiment [2] and 0.194 µM in experiment [4] (setting [5]).
